Data from ChEMBL document CHEMBL1255312, “Activity of daptomycin against Listeria monocytogenes isolates from cerebrospinal fluid” (Antimicrob Agents Chemother, 2008).
Values after ≈ are worked out from the molar mass of the structure shown.

Tests used:
[1] = tested on: Staphylococcus aureus; test: Antimicrobial activity against methicillin-susceptible Staphylococcus aureus infected in experimental rabbit meningitis model; format: functional
[2] = tested on: Homo sapiens; test: Plasma concentration in healthy human at 4 mg/kg, iv QD; format: ADME, organism-based; design: dose 4 mg/kg, route intravenous; conditions: in vivo
[3] = tested on: Streptococcus pneumoniae; test: Antimicrobial activity against penicillin-, quinolone-resistant Streptococcus pneumoniae WB4 infected in experimental rabbit meningitis model; format: functional
[4] = tested on: Listeria monocytogenes; test: Antimicrobial activity against Listeria monocytogenes isolated from cerebrospinal fluid of meningitis patient by Etest method; format: functional
[5] = tested on: Listeria monocytogenes; test: Antimicrobial activity against Listeria monocytogenes isolated from cerebrospinal fluid of meningitis patient by broth dilution method; format: functional
[6] = tested on: Staphylococcus aureus; test: Antimicrobial activity against Staphylococcus aureus infected in hydrocephalic rabbit administered intraventricularly as single dose; conditions: Cardiac ventricle

Molecule `CCCCCCCCCC(=O)N[C@@H](Cc1c[nH]c2ccccc12)C(=O)N[C@H](CC(N)=O)C(=O)N[C@@H](CC(=O)O)C(=O)N[C@@H]1C(=O)NCC(=O)N[C@@H](CCCN)C(=O)N[C@@H](CC(=O)O)C(=O)N[C@H](C)C(=O)N[C@@H](CC(=O)O)C(=O)NCC(=O)N[C@H](CO)C(=O)N[C@@H]([C@H](C)CC(=O)O)C(=O)N[C@@H](CC(=O)c2ccccc2N)C(=O)O[C@@H]1C` has an MIC [1] of 1 µg/mL (≈ 0.617 µM), a Cp [2] of 60 µg/mL and an MIC [3] of 0.06 µg/mL (≈ 0.037 µM). The MIC90 [4] was 4 µg/mL (≈ 2.47 µM), the MIC95 [4] was 1 µg/mL (≈ 0.617 µM) and the MIC90 [5] was 4 µg/mL (≈ 2.47 µM). For the same molecule, the MIC [6] was 0.25 µg/mL (≈ 0.154 µM).
